Test systems include MDA-MB-231 breast; 786-0 renal; M14 melanoma; UACC-257 melanoma; NCI-H23 lung; EKVX NSCLC; HCT-15 colon; OVCAR-8 ovarian; BT-549 breast; RPMI-8226 leukemia.
Common to all, as to experiment: NCI tumour cell line growth inhibition, 48 h

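Five compound concentrations were applied to cells in 96-well plates for 48 hours; endpoints were derived by simple linear interpolation of the resulting dose-response curve. At the GI50, growth is halved. The concentration for full growth arrest is given as TGI.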 A value given as a limit tells only on which side of the number the result lay.

As for `COc1ccc(OC)c(NCC(=O)Nn2cnc3ccc(S(=O)(=O)Nc4cc(OC)ccc4OC)cc3c2=O)c1`, the TGI in the experiment with MDA-MB-231 breast, in the experiment on 786-0 renal, in the experiment with M14 melanoma, in the experiment on UACC-257 melanoma, in the experiment with NCI-H23 lung and in the experiment with EKVX NSCLC was more than 100 µM throughout. Besides, the TGI with HCT-15 colon, with OVCAR-8 ovarian and with BT-549 breast was more than 100 µM throughout.
Regarding `CCOP(=O)(OCC)/C(C#N)=C/c1cccn1C(C)C`, the TGI with MDA-MB-231 breast, in the experiment with 786-0 renal, in the experiment on M14 melanoma, with UACC-257 melanoma, in the experiment on NCI-H23 lung and in the experiment with EKVX NSCLC was more than 100 µM throughout. Further, the TGI in the experiment on HCT-15 colon, in the experiment with OVCAR-8 ovarian and in the experiment on BT-549 breast was more than 100 µM in each case.
With `Cc1c[n+]2c3ccccc3c3ccccc3c2s1`, the TGI is more than 100 µM with 786-0 renal; 35.4 µM in the experiment on M14 melanoma; 57.8 µM in the experiment on RPMI-8226 leukemia; 18.3 µM in the experiment with UACC-257 melanoma; 3.9 µM in the experiment with NCI-H23 lung; more than 100 µM in the experiment with EKVX NSCLC. Also, the TGI is more than 100 µM in the experiment with HCT-15 colon and 28.8 µM with OVCAR-8 ovarian.
With `NNC(=O)CC(=O)Nc1cccc(Cl)c1`, the TGI in the experiment with MDA-MB-231 breast, in the experiment with 786-0 renal, with RPMI-8226 leukemia, with UACC-257 melanoma, in the experiment with NCI-H23 lung and with EKVX NSCLC was more than 100 µM in each case. For the same molecule, the TGI in the experiment on HCT-15 colon, in the experiment with OVCAR-8 ovarian and in the experiment with BT-549 breast was more than 100 µM in each case.
For the molecule `OC1c2ccccc2CCC1CN1CCN(CCOC(c2ccc(F)cc2)c2ccc(F)cc2)CC1` (stereo not drawn), the TGI in the experiment with MDA-MB-231 breast was 31.6 µM; in the experiment on 786-0 renal, 25 µM; in the experiment with M14 melanoma it was 27.6 µM; in the experiment with RPMI-8226 leukemia, 64.4 µM; in the experiment on UACC-257 melanoma, 35.3 µM; with NCI-H23 lung it was 32.2 µM. For the same molecule, the results for the TGI in the experiment on HCT-15 colon, in the experiment with OVCAR-8 ovarian and in the experiment with BT-549 breast were 23.4 µM, 28.5 µM and 25.1 µM, respectively.
As for `C=CCNC(=S)N1CC(C)C(=O)Nc2cc(Cl)ccc21` (stereo not drawn), the TGI with 786-0 renal, with M14 melanoma, in the experiment with RPMI-8226 leukemia, in the experiment on UACC-257 melanoma, with NCI-H23 lung and in the experiment with EKVX NSCLC was more than 100 µM throughout. The TGI with HCT-15 colon and with OVCAR-8 ovarian was more than 100 µM each time.
`COc1cc(C2c3cc4c(cc3[C@@H](Nc3cccc(CO)c3)C3COC(=O)[C@H]23)OCO4)cc(OC)c1O` (stereo partly drawn): the TGI in the experiment with RPMI-8226 leukemia stood at 2.12 µM; in the experiment on UACC-257 melanoma, 5.04 µM; with NCI-H23 lung, 2.77 µM; with EKVX NSCLC it was 19.8 µM; in the experiment with HCT-15 colon it was 2.86 µM; with OVCAR-8 ovarian it was 16.2 µM.
On to `c1cc(-c2ccc(-c3ccc(-c4ccc(-c5ccncc5)o4)cc3)o2)ccn1`, for which the TGI in the experiment on MDA-MB-231 breast came to 63.8 µM; in the experiment with 786-0 renal, 30.7 µM; with M14 melanoma, 32.2 µM; in the experiment on UACC-257 melanoma, 29.6 µM; in the experiment on NCI-H23 lung it was 39.1 µM; in the experiment on EKVX NSCLC, 45 µM. Further, the TGI in the experiment with HCT-15 colon was 28.3 µM; in the experiment with OVCAR-8 ovarian, 33.5 µM; in the experiment with BT-549 breast, 30.7 µM.
As for `O=P1(c2ccccc2)c2ccccc2-c2ccccc21`, the TGI with MDA-MB-231 breast, in the experiment on 786-0 renal, in the experiment with RPMI-8226 leukemia, with UACC-257 melanoma, in the experiment on NCI-H23 lung and with EKVX NSCLC was more than 100 µM throughout. For the same molecule, the TGI in the experiment with HCT-15 colon, with OVCAR-8 ovarian and in the experiment with BT-549 breast was more than 100 µM each time.
For the molecule `S=C(NCCc1ccccn1)N/N=C/c1ccccn1`, the TGI with 786-0 renal is more than 89.7 µM; in the experiment with M14 melanoma, 3.39 µM; in the experiment on RPMI-8226 leukemia, 0.186 µM; in the experiment with UACC-257 melanoma it was 1.77 µM; in the experiment with EKVX NSCLC, more than 27.7 µM; with HCT-15 colon it was more than 100 µM. Moreover, the TGI with OVCAR-8 ovarian is more than 100 µM.
For the molecule `CC(CC(N)C(=O)O)C(=O)O` (stereo not drawn), the TGI in the experiment with MDA-MB-231 breast, with 786-0 renal, with M14 melanoma, in the experiment with UACC-257 melanoma, in the experiment on NCI-H23 lung and with EKVX NSCLC was more than 100 µM throughout. In addition, the TGI with HCT-15 colon, in the experiment with OVCAR-8 ovarian and in the experiment on BT-549 breast was more than 100 µM each time.
On to `CN(CC(=O)O)c1ncc2c(n1)C=CCC2`, for which the TGI in the experiment on MDA-MB-231 breast, with 786-0 renal, in the experiment on M14 melanoma, in the experiment with RPMI-8226 leukemia, with UACC-257 melanoma and in the experiment on NCI-H23 lung was more than 100 µM each time. In addition, the TGI in the experiment on EKVX NSCLC, in the experiment with HCT-15 colon and in the experiment on OVCAR-8 ovarian was more than 100 µM throughout.
Consider `CC12C3C4C1C1C2C3C41CO` (stereo not drawn), for which the TGI in the experiment on MDA-MB-231 breast, in the experiment on 786-0 renal, in the experiment on M14 melanoma, in the experiment with UACC-257 melanoma, in the experiment with EKVX NSCLC and in the experiment with HCT-15 colon was more than 100 µM each time. The same molecule had a TGI in the experiment with OVCAR-8 ovarian of more than 100 µM.
For `COc1cc(C(=O)O[C@H](C(=O)NCCCNC(=O)[C@@H](OC(=O)c2cc(OC)cc3c(C)cccc23)[C@]2(C)CO2)[C@]2(C)CO2)c2cccc(C)c2c1`, the GI50 in the experiment on MDA-MB-231 breast was 0.153 µM; with M14 melanoma, less than 0.0486 µM; in the experiment with RPMI-8226 leukemia it was 0.322 µM; in the experiment with UACC-257 melanoma, 0.27 µM; in the experiment on NCI-H23 lung, less than 0.01 µM; in the experiment on EKVX NSCLC it was 0.0885 µM. In addition, the GI50 with HCT-15 colon is 0.0444 µM; in the experiment on BT-549 breast it was 0.197 µM. Also, the TGI came to 0.579 µM with MDA-MB-231 breast; 2.26 µM in the experiment with RPMI-8226 leukemia; 0.872 µM with UACC-257 melanoma; 0.0224 µM with NCI-H23 lung; 1.61 µM in the experiment with EKVX NSCLC; 0.723 µM with HCT-15 colon. The same molecule came in with a TGI with BT-549 breast of 2.29 µM.

These data come from PubChem BioAssay (NCI).
